The values that follow come from patent US12410179B2, “Modulators of TNF alpha activity and uses thereof” (RayThera, Inc., priority 2023, dated 2025).

Usually IC50 stands for the concentration at which inhibition is half-maximal. A word on the Emax: it is the greatest response seen or fitted, relative to the assay's reference.

Chain of TNFα (P01375 77-233 limits assumed): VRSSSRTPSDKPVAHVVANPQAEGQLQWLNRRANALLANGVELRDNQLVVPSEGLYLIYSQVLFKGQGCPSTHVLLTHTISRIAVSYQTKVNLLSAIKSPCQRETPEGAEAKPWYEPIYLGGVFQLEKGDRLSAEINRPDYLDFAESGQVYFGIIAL

The first assay addresses TNFα (Homo sapiens, UniProt P01375). In words: HEK-Blue hTNFα reporter assay. In kind it is cell-based. Also on record: purchased R&D biosystem (R&D Systems) 210-TA-020/CF. The conditions noted are these: HEK-Blue hTNFα reporter cells, SEAP readout; read-out: IC50 Range. The method in brief: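 Compounds preincubated 1 h at 37 °C with recombinant hTNFα ([…]), then added to HEK293 NF-κB-SEAP reporter cells, 10000 cells/well, 24 h at 37 °C. SEAP read by QUANTI-Blue at OD620; % inhibition versus stimulated and unstimulated controls, IC50 by 4-parameter fit.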
In general terms: Reporter assays use an easily measured gene product as a stand-in for the process of interest.
Turning to `[2H]C([2H])([2H])N1C(=O)c2ccc(F)c(OC(F)F)c2[C@H]2C[C@@H]1c1nn3ccc(-c4cnc([C@]5(N)C[C@@](C)(O)C5)c(F)c4)nc3c12` [Example 289], the IC50 is less than 25 nM.
On to `NC1(c2ncc(-c3ccn4nc5c(c4c3)[C@@H]3C[C@H]5NC(=O)c4cccc(OC5CC5)c43)cn2)CCC1` [Example 233], for which the 50% inhibitory concentration (IC50) lay within 25 to 100 nM.
Still for that read-out and setting: under `[2H]C([2H])([2H])N1C(=O)c2cccc(OC(F)F)c2[C@H]2C[C@@H]1c1nn3cc(C)c(-c4cnc([C@]5(N)C[C@@](C)(C#N)C5)nc4)nc3c12` [Example 237] stands less than 25 nM; under `[2H]C([2H])([2H])N1C(=O)c2cccc(OC(F)F)c2[C@H]2C[C@@H]1c1nn3ccc(-c4cnc(C5(N)CCC5)c(F)c4)cc3c12` [Example 250], less than 25 nM; under `C[C@]1(C#N)C[C@](N)(c2ncc(-c3cc4c5c(nn4cc3F)[C@H]3C[C@@H]5c4c(OC(F)F)cccc4C(=O)N3)cc2F)C1` [Example 58], less than 25 nM.
Same read-out and setting: then `O=C1N[C@@H]2C[C@H](c3c(OC(F)F)cccc31)c1c2nn2ccc(-c3ccnc(OC4COC4)c3)cc12` [Example 202], with less than 25 nM.
Still for that read-out and setting: under `CN1C(=O)c2cccc(OC(F)F)c2[C@H]2C[C@@H]1c1nn3cc(F)c(-c4cnc(P(C)(C)=O)cn4)cc3c12` [Example 128] stands less than 25 nM; under `CN1C(=O)c2cccc(OC(F)F)c2[C@H]2C[C@@H]1c1nn3ccc(-c4cnc([C@@H](O)C(F)F)nc4)cc3c12` [Example 106], less than 25 nM.
As for `[2H]C([2H])([2H])N1C(=O)c2cccc(OC(F)F)c2[C@H]2C[C@@H]1c1nn3cc(C)c(-c4cnc(C(C)(C)N)nc4)cc3c12` [Example 300], the IC50 was less than 25 nM.
As for `CN1C(=O)c2cccc(OC(F)F)c2[C@H]2C[C@@H]1c1nn3ccc(-c4cnc(P(C)(C)=O)cn4)cc3c12` [Example 87], the IC50 was less than 25 nM.
The same measure, in the same setting: then `CN1C(=O)c2cccc(OC(F)F)c2[C@H]2C[C@@H]1c1nn3ccc(-c4cnc(C5(N)CC5)nc4)cc3c12` [Example 17], with less than 25 nM; and `[2H]C([2H])([2H])N1C(=O)c2cccc(OC(F)F)c2[C@H]2C[C@@H]1c1nn3ccc(-c4cnc(N5CC(C)(N)C5)nc4)cc3c12` [Example 291], with less than 25 nM.
Still for that read-out and setting: under `CN1C(=O)c2cccc(OC(F)F)c2[C@H]2C[C@@H]1c1nn3ccc(-c4ccc(P(C)(C)=O)cn4)cc3c12` [Example 122] stands less than 25 nM.
On the same count and under the same terms, then `C#Cc1cccc2c1[C@H]1C[C@H](c3nn4ccc(-c5cnc([C@]6(O)C[C@@](C)(O)C6)nc5)cc4c31)N(C)C2=O` [Example 305], with less than 25 nM; and `Cc1nc([C@]2(O)C[C@@](C)(O)C2)ncc1-c1ccn2nc3c(c2c1)[C@@H]1C[C@H]3N(C)C(=O)c2cccc(OC(F)F)c21` [Example 147], with less than 25 nM.
`[2H]C([2H])([2H])N1C(=O)c2cccc(OC(F)F)c2[C@H]2C[C@@H]1c1nn3ccc(-c4cnc([C@]5(C#N)C[C@@](C)(N)C5)nc4)nc3c12` [Example 232]: the IC50 was 100 to 1000 nM.
Still for that read-out and setting: under `[2H]C([2H])([2H])N1C(=O)c2cccc(OC(F)F)c2[C@H]2C[C@@H]1c1nn3ccc(-c4cnc(C5(N)CC5)cn4)cc3c12` [Example 266] stands less than 25 nM.
Same read-out and setting: then `[2H]C([2H])([2H])N1C(=O)c2cccc(OC(F)F)c2[C@H]2C[C@@H]1c1nn3ccc(-c4cnc(C(C)(C)N)nc4)cc3c12` [Example 254], with less than 25 nM; and `[2H]C([2H])([2H])N1C(=O)c2cccc(OC(F)F)c2[C@H]2C[C@@H]1c1nn3ccc(-c4cnc([C@]5(C#N)C[C@](C)(N)C5)c(F)c4)cc3c12` [Example 293], with less than 25 nM; and `C[C@]1(C#N)C[C@](N)(c2ncc(-c3ccn4nc5c(c4n3)[C@@H]3C[C@H]5NC(=O)c4cccc(OC(F)F)c43)cc2F)C1` [Example 173], with less than 25 nM.
Still for that read-out and setting: under `CN1C(=O)c2cccc(OC(F)F)c2[C@H]2C[C@@H]1c1nn3ccc(-c4cnc([C@]5(N)C[C@H](O)C5)c(F)c4)cc3c12` [Example 169] stands less than 25 nM; under `CN1C(=O)c2cccc(OC(F)F)c2[C@H]2C[C@@H]1c1nn3ccc(-c4cnc([C@]5(N)C[C@@](C)(C#N)C5)nc4)nc3c12` [Example 7, (1R,3s)-3-amino-3-(5-((7R,14S)-1-(difluoromethoxy)-6-methyl-5-oxo-5,6,7,14-tetrahydro-7,14-methanobenzo[c]pyrimido[1′,2′:1,5]pyrazolo[4,3-f]azocin-12-yl)pyrimidin-2-yl)-1-methylcyclobutane-1-carbonitrile], less than 25 nM; under `NC1(c2ccc(-c3ccn4nc5c(c4n3)[C@@H]3C[C@H]5NC(=O)c4cccc(OC(F)F)c43)cn2)CCC1` [Example 186], 25 to 100 nM.
`[2H]C([2H])([2H])N1C(=O)c2cccc(OC(F)F)c2[C@H]2C[C@@H]1c1nn3ccc(-c4cnc([C@]5(N)CCOC5)nc4)nc3c12` [Example 193]: the IC50 is less than 25 nM.
With `[2H]C([2H])([2H])N1C(=O)c2cccc(OC(F)F)c2[C@H]2C[C@@H]1c1nn3cc(F)c(-c4cnc([C@]5(N)C[C@H](C#N)C5)nc4)cc3c12` [Example 290], the IC50 is less than 25 nM.
The same measure, in the same setting: under `[2H]C([2H])([2H])N1C(=O)c2cccc(OC(F)F)c2[C@H]2C[C@@H]1c1nn3cnc(-c4cnc(C(C)(C)N)nc4)cc3c12` [Example 298] stands less than 25 nM.
Still for that read-out and setting: then `[2H]C([2H])([2H])N1C(=O)c2cccc(OC(F)F)c2[C@H]2C[C@@H]1c1nn3cc(C)c(-c4cnc([C@]5(N)C[C@@](C)(O)C5)nc4)nc3c12` [Example 215], with less than 25 nM.
As for `[2H]C([2H])([2H])N1C(=O)c2cccc(OC(F)F)c2[C@H]2C[C@@H]1c1nn3cnc(-c4cnc([C@]5(N)C[C@@](C)(C#N)C5)nc4)cc3c12` [Example 61], the IC50 is less than 25 nM.
Consider `CN1C(=O)c2cccc(OC(F)F)c2[C@H]2C[C@@H]1c1nn3cc(F)c(-c4ncc(C5(O)COC5)cn4)cc3c12` [Example 166], for which the IC50 was less than 25 nM.
The same measure, in the same setting: then `CN1C(=O)c2cccc(OC(F)F)c2[C@H]2C[C@@H]1c1nn3ccc(-c4cnc(C5(O)CCOC5)nc4)nc3c12` (stereo partly drawn) [Example 12, (7R,14S)-1-(difluoromethoxy)-12-(2-(3-hydroxytetrahydrofuran-3-yl)pyrimidin-5-yl)-6-methyl-6,7-dihydro-7,14-methanobenzo[c]pyrimido[1′,2′:1,5]pyrazolo[4,3-f]azocin-5 (14H)-one], with 25 to 100 nM; and `[2H]C([2H])([2H])N1C(=O)c2cccc(OC(F)F)c2[C@H]2C[C@@H]1c1nn3ccc(-c4ncc(C5(N)CCC5)cn4)cc3c12` [Example 211], with less than 25 nM; and `[2H]C([2H])([2H])N1C(=O)c2cccc(C#N)c2[C@H]2C[C@@H]1c1nn3cc(F)c(-c4cnc([C@]5(N)C[C@@](C)(C#N)C5)nc4)cc3c12` [Example 312], with less than 25 nM.
For the compound `CN1C(=O)c2cccc(OC(F)F)c2[C@H]2C[C@@H]1c1nn3ccc(-c4ncc([C@H](O)[C@H]5CCO5)cn4)cc3c12` [Example 132], the IC50 is less than 25 nM.
As to `[2H]C([2H])([2H])N1C(=O)c2cccc(OC(F)F)c2[C@H]2C[C@@H]1c1nn3ccc(-c4cnc([C@]5(N)C[C@@](C)(C#N)C5)nc4C)cc3c12` [Example 231], the half-maximal inhibitory concentration (IC50) was less than 25 nM.
As to `[2H]C([2H])([2H])N1C(=O)c2cccc(OC(F)F)c2[C@H]2C[C@@H]1c1nn3cc(C)c(-c4cnc(C(C)(C)N)nc4)nc3c12` [Example 296], the IC50 is less than 25 nM.
Same read-out and setting: under `[2H]C([2H])([2H])N1C(=O)c2cccc(OC(F)F)c2[C@H]2C[C@@H]1c1nn3ccc(-c4cnc([C@]5(N)C[C@@](C)(O)C5)nc4C)nc3c12` [Example 285] stands less than 25 nM; under `[2H]C([2H])([2H])N1C(=O)c2cccc(OC(F)F)c2[C@H]2C[C@@H]1c1nn3ccc(-c4ccc(S(=N)(=O)CC)nc4)cc3c12` (stereo partly drawn) [Example 124], less than 25 nM.
As for `[2H]C([2H])([2H])N1C(=O)c2cccc(OC(F)F)c2[C@H]2C[C@@H]1c1nn3ccc(-c4cnc(C5(N)CCC5)nc4C)nc3c12` [Example 242], the 50% inhibitory concentration (IC50) was less than 25 nM.
Still for that read-out and setting: under `CN1C(=O)c2cccc(OC(F)F)c2[C@H]2C[C@@H]1c1nn3ccc(-c4cnc(C5(O)CC(C)(C#N)C5)nc4)nc3c12` (stereo partly drawn) [Example 4, (1R,3s)-3-(5-((7R,14S)-1-(difluoromethoxy)-6-methyl-5-oxo-5,6,7,14-tetrahydro-7,14-methanobenzo[c]pyrimido[1′,2′:1,5]pyrazolo[4,3-f]azocin-12-yl)pyrimidin-2-yl)-3-hydroxy-1-methylcyclobutane-1-carbonitrile] stands less than 25 nM.
Same read-out and setting: then `CN1C(=O)c2cccc(OC(F)F)c2[C@H]2C[C@@H]1c1nn3ccc(-c4cnc(C5(N)CCC5)nc4)nc3c12` [Example 3, (7R,14S)-12-(2-(1-aminocyclobutyl)pyrimidin-5-yl)-1-(difluoromethoxy)-6-methyl-6,7-dihydro-7,14-methanobenzo[c]pyrimido[1′,2′:1,5]pyrazolo[4,3-f]azocin-5 (14H)-one], with less than 25 nM; and `[2H]C([2H])([2H])N1C(=O)c2cccc(OC(F)F)c2[C@H]2C[C@@H]1c1nn3ccc(-c4cnc(C5(N)CCC5)cn4)cc3c12` [Example 207], with less than 25 nM; and `CN1C(=O)c2cccc(OC(F)F)c2[C@H]2C[C@@H]1c1nn3cc(F)c(-c4cnc([C@](C)(O)CC#N)nc4)cc3c12` [Example 117], with less than 25 nM.
The same measure, in the same setting: then `C[C@]1(O)C[C@](N)(c2ccc(-c3ccn4nc5c(c4c3)[C@@H]3C[C@H]5NC(=O)c4cccc(OC(F)F)c43)cn2)C1` [Example 224], with less than 25 nM.

Still in this assay, the particulars now being: HEK-Blue hTNFα reporter cells; read-out: TNFα reporter, Emax.
Turning to `CN1C(=O)c2cccc(OC(F)F)c2[C@H]2C[C@@H]1c1nc3ccc(-c4cnc(C5(O)CCOCC5)nc4)cc3n12` [Comp. Ex #3, reference compound], the Emax was 70%.

The same assay, now with this note: HEK-Blue hTNFα reporter cells; read-out: TNFα reporter, IC50.
As to `CN1C(=O)c2cccc(OC(F)F)c2[C@H]2C[C@@H]1c1nc3ccc(-c4cnc(C5(O)CCOCC5)nc4)cc3n12` [Comp. Ex #3, reference compound], the IC50 was 8.2 nM.
